# Test results as given in patent US20260364030A1, “NOVEL SELECTIVE INHIBITORS OF LYSYL OXIDASES” (Syntara Limited, priority 2022, published 2026).
# Key:
# [1] = test system: SSAO/VAP-1, MAO-B, MAO-A and DAO; assay: Selectivity with respect to other amine oxidases; type: biochemical, human
# Description: Human recombinant SSAO/VAP-1 amine oxidase activity was determined using the coupled colorimetric method as described for monoamine oxidase, copper-containing amine oxidases and related enzymes [Holt A. and Palcic M., 2006]. Briefly, a cloned cDNA template corresponding to residues 34-763 of human SSAO/VAP-1, and incorporating a mouse Ig kappa (κ) signal sequence, N-terminal flag epitope tag and tobacco etch virus (TEV) cleavage site, was assembled in a mammalian expression vector (pLO-CMV) by Geneart AG. This vector containing human SSAO/VAP-1 residues was transfected into CHO-K1 glycosylation mutant cell line, Lee 8. A clone stably expressing human SSAO/VAP-1 was isolated and cultured in large scale. Active human SSAO/VAP-1 was purified and recovered using immunoaffinity chromatography. This was used as the source for SSAO/VAP-1 activity. A high-throughput fluorescent assay was developed using either 96 or 384 well format. Briefly, in a standard 384 well plate assay 25 μL of purified human SSAO/VAP-1 (0.25 μg/mL) in 0.1 M sodium phophate buffer (pH 7.4) was added into each well. […] The fluorescence unit (RFU) was read every 2.5 min for 30 min at 37 °C excitation 544 nm and emission 590 (Optima; BMG labtech). The slope/min of the kinetics for each well was calculated using MARS data analysis software (BMG labtech) and this value was used to deduce the IC50 value (Dotmatics). […]
# [2] = Diffusion through human skin, Franz diffusion cell; type: in vitro ADME; settings: topical formulation containing 2% Compound 1
# Source text: Skin permeability is essential when considering topical application to treat skin conditions. One way to evaluate skin permeability is to use a Franz diffusion cell system with human skin as a membrane (Particle Sciences; Technical Brief 2009; Vol. 10). The donor compound (Compound 1), topically formulated, is applied on the top chamber and diffusion through the skin is monitored at relevant time points by sampling the solution in the receptor chamber via the sampling port. The concentration of Compound 1 was determined by quantitative HPLC analysis.
# [3] = Stability in topical formulation (purity profile at room temperature); type: physicochemical; settings: for % Purity of Compound 1 in topical formulation: 1% Compound 1
# ovarian cancer = ovarian cancer genetically engineered mouse models; cited from earlier work
compound,measurement,setting,value
"NC/C(=C\F)CS(=O)(=O)c1ccccc1 [Compound 1, (E)-3-fluoro-2-((phenylsulfonyl)methyl)prop-2-en-1-amine]","Selectivity for LOX family with respect to SSAO/VAP-1, MAO-B, MAO-A and DAO",[1],selectively inhibit members of the LOX family of enzymes
same,Level in the receptor chamber,[2]; after 24 hours (FIG. 2),high levels
same,Permeability and diffusion through human skin,[2]; time dependent (FIG. 2),good permeability and diffusion
same,% Purity of Compound 1 in topical formulation,"[3]; room temperature, t = 3 months, 129600 min",99.81%
same,% Purity of Compound 1 in topical formulation,"[3]; room temperature, t = 6 months, 259200 min",99.82%
same,% Purity of Compound 1 in topical formulation,"[3]; room temperature, t = 9 months, 388800 min",99.79%
same,% Purity of Compound 1 in topical formulation,[3]; t = 0,99.83%
same,Compound peak percentage in topical formulation,"[3]; topical formulation 1, at all tested time points",above 99.5%
"N#CCCN [BAPN, β-aminopropionitrile, reference compound]",Survival and lung metastasis,ovarian cancer,significantly increased survival and decreased lung metastasis
